# Results taken from patent US12257290B2, “PIC1 inhibition of myeloperoxidase oxidative activity in an animal model” (priority 2018, dated 2025).
# Ends that are not written are not given here.
# Columns and labels:
# [1] = 'Two-hit' TRALI model: LPS then 30% mismatched human RBC transfusion; format: in vivo, Wistar rats
# Experimental: In this Example, Wistar rats were primed with lipopolysaccharide followed by 30% transfusion of mismatched erythrocytes, against which the rats have preexisting antibodies. Sham and vehicle animals were used as controls with a subgroup of animals receiving PIC1 two minutes before transfusion. At 4 hours, blood was isolated for complete blood count. Isolated lung tissue was stained with hematoxylin and eosin and myeloperoxidase (MPO) activity in lung tissue was quantified in a functional assay. Free DNA in plasma was detected by PicoGreen staining.
# Lung tissue stained with H&E was analyzed by a clinician blinded to the experimental groups (vehicle only and PIC1-treated animals). Neutrophil infiltration and cell wall thickening were scored on a scale of 0-4: 0=normal lungs, 1=minor lung involvement, 2=moderate lung involvement, 3=serious lung involvement, 4=severe lung involvement.
# A myeloperoxidase (MPO) activity assay was conducted as follows. Frozen lung tissue was diced and homogenized on ice in 50 mM potassium phosphate, and centrifuged at 10,000 RPM at 4° C. for 15 minutes after which the supernatant was discarded. To solubilize MPO from the neutrophils in lung tissue, the pellet was resuspended in […] 50 mM hexadecyltrimethylammonium bromide (HTAB), homogenized by sonication and snap frozen in liquid nitrogen. This process was repeated twice and samples were then centrifuged at 10,000 RPM at 4° C. for 10 minutes and supernatant collected.
# Peroxidase activity in these samples was measured using 10-actyl-3,7-dihydroxyphenoxazine (ADHP, Amplex Red) following MPO antibody capture from samples as previously described. Fluorescence was read from […] in […] which provided twenty-five data points per well at an excitation wavelength of 535 nm and emission wavelength of 590 nm using a BioTek microplate reader. Purified MPO was used as a positive control and phosphate buffered saline (PBS) as a negative control. All activity assays were performed in triplicate.
# Free DNA was measured by PicoGreen in rat plasma as previously described. Briefly, plasma samples were diluted 1:10 in 10 mM Tris-HCl, 1 mM EDTA, pH 8.0 (TE) buffer and 50 uL of each sample was added to the wells along with 50 uL of a 1:200 dilution of PicoGreen (Life Technologies) and incubated at room temperature for 10 minutes, protected from light. A DNA standard curve was prepared in TE Buffer. The fluorescence was then read at an excitation wavelength of 485 nm and an emission wavelength of 520 nm using a BioTek microplate reader. All free DNA measurements were done in triplicate.
# For the ‘two-hit’ model, rats were sedated as above and lipopolysaccharide (LPS, from Salmonella enterica serotype enteritidis, 2 mg/kg [Millipore-Sigma]) was administered intravascularly through the indwelling jugular catheter as the ‘first-hit’ similar to other TRALI models (reviewed in references). This was followed 30 minutes later by 30% mismatched RBC transfusion as the ‘second-hit’. Blood samples were collected prior to LPS administration and at 4 hours after RBC transfusion for analysis of blood chemistries (SuperChem and CBC, Antech Diagnostics). Upon completion of the final blood draw, the animals were euthanized using isofluorane and guillotine. A necropsy was completed to collect organs for histopathology. Lungs acquired from each animal were weighed and then stored in formalin or frozen at −70° C. Hematoxylin and eosin (H&E) stained sections of formalin fixed tissue were reviewed in a blinded fashion.
# To determine if prophylactic administration of PIC1 would attenuate TRALI pathogenesis, this transfusion-based antibody-initiated complement-mediated TRALI model was utilized. Twenty-eight minutes after IV LPS infusion, 160 mg/kg PIC1 or vehicle control was administered IV followed by the 30% mismatched RBC transfusion. […]
# MPO = biological target: T1, MPO (Homo sapiens, UniProt P05164); experiment: MPO-mediated oxidation of TMB (FIG. 16); format: biochemical; conditions: FIG. 16, dose-response, increasing MPO concentrations
# T1 sequence (P05164 49-745): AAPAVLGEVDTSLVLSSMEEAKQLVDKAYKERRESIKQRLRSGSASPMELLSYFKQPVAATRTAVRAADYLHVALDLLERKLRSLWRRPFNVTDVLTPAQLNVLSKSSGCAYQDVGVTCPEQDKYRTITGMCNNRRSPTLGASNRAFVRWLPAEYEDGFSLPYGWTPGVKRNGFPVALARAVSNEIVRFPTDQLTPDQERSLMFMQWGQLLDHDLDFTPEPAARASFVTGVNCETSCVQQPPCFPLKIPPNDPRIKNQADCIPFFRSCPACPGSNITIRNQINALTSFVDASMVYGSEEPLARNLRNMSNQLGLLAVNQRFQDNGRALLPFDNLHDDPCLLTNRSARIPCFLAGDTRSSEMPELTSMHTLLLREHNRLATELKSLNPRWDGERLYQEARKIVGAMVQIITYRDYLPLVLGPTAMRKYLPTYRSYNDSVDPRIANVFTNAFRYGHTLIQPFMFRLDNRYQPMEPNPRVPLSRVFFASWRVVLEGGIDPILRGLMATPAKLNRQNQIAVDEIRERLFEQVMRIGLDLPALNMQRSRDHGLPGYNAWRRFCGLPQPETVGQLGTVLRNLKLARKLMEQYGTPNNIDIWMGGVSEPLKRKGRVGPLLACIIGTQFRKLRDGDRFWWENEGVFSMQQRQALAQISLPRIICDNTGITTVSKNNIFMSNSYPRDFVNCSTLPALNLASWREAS
# From the text: FIG. 16 is a graph showing PIC1 dose-response inhibition of MPO-mediated oxidation of TMB for increasing concentrations of MPO.
# PA-dPEG24 can inhibit the peroxidase effect of MPO in clinical CF sputum samples ex vivo as well as for purified MPO in vitro. […] PA-dPEG24 can inhibit NET formation in vitro, such as NET formation stimulated by any of phorbol 12-myristate 13-acetate (PMA), purified MPO, and immune complex-activated human sera.
# [2] = tested on: classical complement pathway; conditions: administered intravascularly into rats; by 30 seconds; cited from earlier work
substance,measurement,setting,value
"IALILEPICCQERAA-dPEG24 (cysteine pairing not given here) [PA-dPEG24, 15-amino acid PEGylated peptide, 24 PEG moieties at the C-terminus]",lung weight,"[1]; 160 mg/kg IV 2 min before transfusion, 4 h after transfusion, vs vehicle p=0.001",significant reduction
same,lung histology (H&E),"[1]; 160 mg/kg IV prophylactic, 4 h after transfusion",decreased injury to the lung architecture
same,MPO activity in lung tissue (Amplex Red),"[1]; 5 minutes read, vs vehicle p=0.005",significantly reduced
same,MPO activity in lung tissue (Amplex Red),"[1]; 10 minutes read, vs vehicle p=0.002",significantly reduced
same,"lung injury score (neutrophil infiltration and cell wall thickening), mean","[1]; scale 0-4, 160 mg/kg IV, vs vehicle p=0.003",1.5
same,free DNA in plasma (PicoGreen),[1]; vs vehicle p=0.02,significantly reduced
same,blood levels of white blood cells,[1]; vs vehicle p=0.043,significant increase
same,blood levels of lymphocytes,[1]; vs vehicle p=0.048,significant increase
same,circulating neutrophils,[1]; vs vehicle p=0.101,trends towards increased numbers
same,circulating monocytes,[1]; vs vehicle p=0.229,trends towards increased numbers
same,"blood levels of creatinine, BUN/creatinine and AST","[1]; vs vehicle, data not shown",reduction
same,kidney weights,"[1]; vs vehicle, data not shown",reduced kidney weights
same,MPO-mediated oxidation of TMB,MPO,inhibits MPO-mediated oxidation
same,systemic inhibition of complement activation,[2],> 90%
